Values joined by “and” are separate entries in the source; they are usually repeats but may differ in a detail not shown here. Equal entries are not always repeated. Inconclusive results and toxic doses are left out.
Test system: BDF1 mice, L1210 leukemia sc, survival T/C
Experiment: NCI In Vivo Anticancer Drug Screen. Data for tumor model L1210 Leukemia (subcutaneous) in B6D2F1 (BDF1) mice
Conditions: higher = longer survival
Method in brief: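 Read-out: T/C ratio, i.e. survival or tumor size in treated mice over that in vehicle-treated controls, from mice bearing transplantable tumors.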

O=c1[nH]c(=O)n(C2OC(CO)C(O)C2O)cc1Br (stereo not drawn)
T/C (endpoint: median survival time, dose: 39.0 mg/kg/injection, schedule: Q01DX Z (sc), vehicle: saline): 100 % of control | T/C (endpoint: median survival time, dose: 65.0 mg/kg/injection, schedule: Q01DX Z (sc), vehicle: saline): 100 % of control | T/C (endpoint: median survival time, dose: 108.0 mg/kg/injection, schedule: Q01DX Z (sc), vehicle: saline): 100 % of control | T/C (endpoint: median survival time, dose: 180.0 mg/kg/injection, schedule: Q01DX Z (sc), vehicle: saline): 94 % of control and 100 % of control | T/C (endpoint: median survival time, dose: 300.0 mg/kg/injection, schedule: Q01DX Z (sc), vehicle: saline): 100 % of control and 105 % of control | T/C (endpoint: median survival time, dose: 500.0 mg/kg/injection, schedule: Q01DX Z (sc), vehicle: saline): 94 % of control and 100 % of control | T/C (endpoint: median survival time, dose: 833.0 mg/kg/injection, schedule: Q01DX Z (sc), vehicle: saline): 105 % of control | T/C (endpoint: median survival time, dose: 1388.0 mg/kg/injection, schedule: Q01DX Z (sc), vehicle: saline): 94 % of control

CCS(=O)(=O)Nc1cccc(Nc2c3cccc(C)c3nc3c(C)cccc23)c1OC
T/C (endpoint: mean survival time, dose: 12.5 mg/kg/injection, schedule: Q01DX009 (sc), vehicle: Klucel (hydroxypropylcellulose) (HPC)): 105 % of control | T/C (endpoint: mean survival time, dose: 25.0 mg/kg/injection, schedule: Q01DX009 (sc), vehicle: Klucel (hydroxypropylcellulose) (HPC)): 100 % of control | T/C (endpoint: mean survival time, dose: 50.0 mg/kg/injection, schedule: Q01DX009 (sc), vehicle: Klucel (hydroxypropylcellulose) (HPC)): 104 % of control | T/C (endpoint: mean survival time, dose: 100.0 mg/kg/injection, schedule: Q01DX009 (sc), vehicle: Klucel (hydroxypropylcellulose) (HPC)): 112 % of control

C[C@]12CCC(=O)C=C1CC[C@H]1[C@@H]3CC[C@](O)(C(=O)CO)[C@@]3(C)C[C@H](O)[C@@]12F
T/C (endpoint: median survival time, dose: 39.0 mg/kg/injection, schedule: Q01DX Z (sc), vehicle: methylcellulose (MC)): 100 % of control | T/C (endpoint: median survival time, dose: 65.0 mg/kg/injection, schedule: Q01DX Z (sc), vehicle: methylcellulose (MC)): 100 % of control | T/C (endpoint: median survival time, dose: 108.0 mg/kg/injection, schedule: Q01DX Z (sc), vehicle: methylcellulose (MC)): 100 % of control | T/C (endpoint: median survival time, dose: 180.0 mg/kg/injection, schedule: Q01DX Z (sc), vehicle: methylcellulose (MC)): 100 % of control | T/C (endpoint: median survival time, dose: 300.0 mg/kg/injection, schedule: Q01DX Z (sc), vehicle: methylcellulose (MC)): 100 % of control and 118 % of control | T/C (endpoint: median survival time, dose: 833.0 mg/kg/injection, schedule: Q01DX Z (sc), vehicle: methylcellulose (MC)): 112 % of control

CN(C)Nc1ncnc2nc[nH]c12
T/C (endpoint: median survival time, dose: 8.4 mg/kg/injection, schedule: Q01DX Z (sc), vehicle: water): 100 % of control | T/C (endpoint: median survival time, dose: 14.0 mg/kg/injection, schedule: Q01DX Z (sc), vehicle: water): 100 % of control | T/C (endpoint: median survival time, dose: 23.0 mg/kg/injection, schedule: Q01DX Z (sc), vehicle: water): 111 % of control | T/C (endpoint: median survival time, dose: 39.0 mg/kg/injection, schedule: Q01DX Z (sc), vehicle: water): 105 % of control | T/C (endpoint: median survival time, dose: 65.0 mg/kg/injection, schedule: Q01DX Z (sc), vehicle: water): 111 % of control | T/C (endpoint: median survival time, dose: 108.0 mg/kg/injection, schedule: Q01DX Z (sc), vehicle: water): 100 % of control

N[C@H](C(=O)O)[C@@H]1CC(Cl)=NO1
T/C (endpoint: median survival time, dose: 1.0 mg/kg/injection, schedule: Q01DX009 (sc), vehicle: saline): 113 % of control | T/C (endpoint: median survival time, dose: 2.0 mg/kg/injection, schedule: Q01DX009 (sc), vehicle: saline): 150 % of control | T/C (endpoint: median survival time, dose: 4.0 mg/kg/injection, schedule: Q01DX009 (sc), vehicle: saline): 159 % of control | T/C (endpoint: median survival time, dose: 8.0 mg/kg/injection, schedule: Q01DX009 (sc), vehicle: saline): 151 % of control and 172 % of control | T/C (endpoint: median survival time, dose: 16.0 mg/kg/injection, schedule: Q01DX009 (sc), vehicle: saline): 162 % of control | T/C (endpoint: median survival time, dose: 32.0 mg/kg/injection, schedule: Q01DX009 (sc), vehicle: saline): 159 % of control | T/C (endpoint: median survival time, dose: 64.0 mg/kg/injection, schedule: Q01DX009 (sc), vehicle: saline): 154 % of control

Nc1nc(=S)c2ncn(C3OC(COC(=O)c4ccc(Cl)cc4)C(OC(=O)c4ccc(Cl)cc4)C3OC(=O)c3ccc(Cl)cc3)c2[nH]1 (stereo not drawn)
T/C (endpoint: median survival time, dose: 12.5 mg/kg/injection, schedule: Q01DX Z (sc), vehicle: carboxymethylcellulose (CMC)): 100 % of control | T/C (endpoint: median survival time, dose: 25.0 mg/kg/injection, schedule: Q01DX Z (sc), vehicle: carboxymethylcellulose (CMC)): 106 % of control | T/C (endpoint: median survival time, dose: 50.0 mg/kg/injection, schedule: Q01DX Z (sc), vehicle: carboxymethylcellulose (CMC)): 100 % of control | T/C (endpoint: median survival time, dose: 65.0 mg/kg/injection, schedule: Q01DX Z (sc), vehicle: carboxymethylcellulose (CMC)): 100 % of control | T/C (endpoint: median survival time, dose: 100.0 mg/kg/injection, schedule: Q01DX Z (sc), vehicle: carboxymethylcellulose (CMC)): 112 % of control | T/C (endpoint: median survival time, dose: 108.0 mg/kg/injection, schedule: Q01DX Z (sc), vehicle: carboxymethylcellulose (CMC)): 122 % of control | T/C (endpoint: median survival time, dose: 200.0 mg/kg/injection, schedule: Q01DX Z (sc), vehicle: carboxymethylcellulose (CMC)): 150 % of control

From PubChem BioAssay AID250 (DTP/NCI, 2004)
